Test results reported in patent US4181802A, “1-(Heterocyclylalkyl)-1,3-dihydro-2-H-benzimidazole-2-ones” (Janssen Pharmaceutica N.V., priority 1978, dated 1980).
Where two headings read alike, the source gives them in different places.

Columns and labels:
Assay type in all cases: cell-based
[1] = target: T1, β-adrenergic receptor (β2), guinea-pig tracheal ring (Cavia porcellus, UniProt Q8K4Z4); test: Guinea-pig tracheal ring (β2): inhibition of isoprenaline-induced relaxation; conditions: guinea-pig tracheal ring, methacholine 1 μg/ml, isoprenaline 0.08 μg/ml, 35° C., read-out: β2 = ED50 tracheal ring (converted)
T1 construct: The trachea is dissected from guinea-pigs; from tissue; host or cells: guinea-pig tracheal smooth muscle (rings)
T1 sequence (Q8K4Z4 whole entry): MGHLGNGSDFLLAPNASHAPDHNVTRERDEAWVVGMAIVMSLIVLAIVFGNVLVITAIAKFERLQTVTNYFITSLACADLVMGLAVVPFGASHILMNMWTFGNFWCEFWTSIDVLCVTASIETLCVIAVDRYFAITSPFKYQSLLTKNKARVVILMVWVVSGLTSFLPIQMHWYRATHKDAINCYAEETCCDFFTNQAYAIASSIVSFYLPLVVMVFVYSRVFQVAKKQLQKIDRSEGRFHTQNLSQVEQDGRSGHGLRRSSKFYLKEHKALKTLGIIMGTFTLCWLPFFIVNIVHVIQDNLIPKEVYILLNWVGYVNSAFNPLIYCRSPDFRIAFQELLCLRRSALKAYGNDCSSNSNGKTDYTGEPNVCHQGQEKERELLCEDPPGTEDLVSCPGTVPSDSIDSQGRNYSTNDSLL
Source text: (§1) 2. GUINEA-PIG TRACHEAL RING (β2)
(§2) The trachea is dissected from guinea-pigs (400±50 g). Four rings, approximately 8 mm in width, are then cut from each trachea. Cartilaginous parts of the tracheal ring are mounted horizontally between two metal rods, one of which is attached to a glass organholder, the other rod being connected to a Grass isometric transducer. Using such a technique the tracheal smooth muscle is suspended optimally i.e. midway between the cartilaginous parts. the prepared rings are suspended in a 100 ml organ chamber filled with Tyrode solution, maintained at 35° C. and aerated with 95% O2 and 5% CO2. The preparation is maintained at tension of 1.5 g throughout the experiment. Tension changes recorded are thus an expression of contraction or relaxation. After a stabilization period of 30 min contraction is induced by adding methacholine (1 μg/ml) to the bath for a 10 min period. Addition of isoprenaline (0.08 μg/ml) for 4 min. in the presence of methacholine induces a relaxation of the tracheal ring. This procedure is repeated twice before adding the drug (t-33'; t-19') and once 30 min after addition of the drug. During the incubation period any direct effects of the drug are measured. A 50% inhibition of the agonist-induced response is used as the criterion of effectiveness and ED50 values (with fiducial limits) are determined by probit analysis.
(§3) The ratio of the ED50 -values obtained in respectively the tracheal ring test (β2) and in the right atrium test (β1) may be considered as an index of the cardioselectivity of the test drug.

[2] = system: β-adrenergic receptor (β2), guinea-pig tracheal ring; test: as above; conditions: ratio of ED50 tracheal ring / ED50 right atrium; for β2/β1 (ratio of the ED50 values, tracheal ring to right atrium; index of cardioselectivity): Table I
Source text: as §1, §2, §3

[3] = target: T2, β-adrenergic receptor (β1), guinea-pig right atrium (Cavia porcellus, UniProt H0W3H1); test: Guinea-pig right atrium (β1): inhibition of isoprenaline-induced increase in heart rate; conditions: isolated guinea-pig right atrium, drug incubation 30 min, 37.5° C.
T2 construct: Spontaneously beating right atria are dissected from guinea-pigs; from tissue; host or cells: guinea-pig right atrium (strip with sinoatrial node)
T2 sequence (H0W3H1 1-470): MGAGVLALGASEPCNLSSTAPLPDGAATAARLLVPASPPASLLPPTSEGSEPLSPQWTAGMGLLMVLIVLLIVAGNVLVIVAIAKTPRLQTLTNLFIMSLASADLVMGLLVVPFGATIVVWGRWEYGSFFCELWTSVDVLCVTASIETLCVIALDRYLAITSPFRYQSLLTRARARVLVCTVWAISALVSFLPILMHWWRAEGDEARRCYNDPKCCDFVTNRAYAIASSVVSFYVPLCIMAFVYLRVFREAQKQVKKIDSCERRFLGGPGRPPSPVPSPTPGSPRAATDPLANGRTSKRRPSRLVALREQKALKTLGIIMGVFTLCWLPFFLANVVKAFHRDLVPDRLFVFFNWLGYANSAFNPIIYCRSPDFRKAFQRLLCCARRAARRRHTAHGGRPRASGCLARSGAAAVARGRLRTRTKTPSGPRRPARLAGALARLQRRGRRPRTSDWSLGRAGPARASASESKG
Method: 1. GUINEA-PIG RIGHT ATRIUM (β1)
Spontaneously beating right atria are dissected from guinea-pigs (400±50 g). A triangular strip of atrium, including the sinoatrial node is excised together with the anterior vena cava.
The vena is fixed to a glass muscle holder and the opposite atrial muscle is connected to a Grass isometric transducer. Atria are suspended at optimal preload in a 100 ml Krebs-Henseleit solution, containing 2 g/l glucose, at 37.5° C. and aerated with 95% O2 and 5% CO2.
Heart rate and contractile force are recorded by means of a Grass FTO3C isometric transducer. Output signals amplified by an isometric transducer amplifier (J.S.I.) via a cardiotachometer (J.S.I.) are recorded on a Honeywell XYY' recorder. […] This produces a dose related increase in heart rate (a). After washing out isoprenaline a stabilization period of 15 min. is allowed. A drug is then added to the bath fluid for 30 min. During this incubation period possible direct chronotropic and inotropic effects of the drug are determined. Following this, a second dose-response curve for isoprenaline is produced by infusion during 10 minutes (b). The slope of the increase in rate is graphically estimated for each period of isoprenaline addition and the ratio b/a is calculated. Based on solvent experiments a ratio of less than 0.70 is considered as the criterion of inhibitory activity. ED50 -values are estimated graphically.

[4] = Table I, 30 min after drug, probit analysis
[5] = Table I, ED50 estimated graphically

## C=CCc1ccccc1OCC(O)CN1CCCC(Cn2c(=O)[nH]c3ccccc32)C1 (stereo not drawn) [2-(CH2CHCH2)C6 H4, H]
[1]; [4]
  IC50: 85.4 nM
[2]
  β2/β1 (ratio of the ED50 values, tracheal ring to right atrium; index of cardioselectivity): 14
[3]; [5]
  IC50: 5.93 nM

## Cc1cc(OCC(O)CN2CCCC(Cn3c(=O)[nH]c4ccccc43)C2)cc(C)c1Cl (stereo not drawn) [3,5-(CH3)2-4-ClC6 H2, H]
[1]; [4]
  IC50: 2820 nM
[2]
  β2/β1 (ratio of the ED50 values, tracheal ring to right atrium; index of cardioselectivity): 500
[3]; [5]
  IC50: 5.63 nM

## O=c1[nH]c2ccccc2n1CC1CCCN(CC(O)COc2ccccc2Br)C1 (stereo not drawn) [2-BrC6 H4, H]
[1]; [4]
  IC50: 119 nM
[2]
  β2/β1 (ratio of the ED50 values, tracheal ring to right atrium; index of cardioselectivity): 22
[3]; [5]
  IC50: 5.43 nM

## COc1ccc(OCC(O)CN2CCCC(Cn3c(=O)[nH]c4ccccc43)C2)cc1 (stereo not drawn) [4-(CH3 O)C6 H4, H]
[1]; [4]
  IC50: 48.6 nM
[2]
  β2/β1 (ratio of the ED50 values, tracheal ring to right atrium; index of cardioselectivity): 2
[3]; [5]
  IC50: 24.3 nM

## CCc1ccccc1OCC(O)CN1CCCC(Cn2c(=O)[nH]c3ccccc32)C1 (stereo not drawn) [2-(C2 H5)C6 H4, H]
[1]; [4]
  IC50: 48.8 nM
[2]
  β2/β1 (ratio of the ED50 values, tracheal ring to right atrium; index of cardioselectivity): 8
[3]; [5]
  IC50: 6.1 nM

## COc1ccccc1OCC(O)CN1CCCC(Cn2c(=O)[nH]c3ccc(Cl)cc32)C1 (stereo not drawn) [2-(CH3 O)C6 H4,6-Cl, 6-chloro-1,3-dihydro-1-{1-[2-hydroxy-3-(2-methoxyphenoxy)propyl]-3-piperidinylmethyl}-2H-benzimidazol-2-one]
[1]; [4]
  IC50: 89.7 nM
[2]
  β2/β1 (ratio of the ED50 values, tracheal ring to right atrium; index of cardioselectivity): 63
[3]; [5]
  IC50: 1.41 nM

## O=c1[nH]c2ccccc2n1CC1CCCN(CC(O)COc2ccccc2)C1 (stereo not drawn) [C6 H5, H]
[1]; [4]
  IC50: 23.3 nM
[2]
  β2/β1 (ratio of the ED50 values, tracheal ring to right atrium; index of cardioselectivity): 15
[3]; [5]
  IC50: 1.65 nM

## O=c1[nH]c2cc(Cl)ccc2n1CC1CCCN(CC(O)COc2ccc(F)cc2)C1 (stereo not drawn) [4-FC6 H4,5-Cl]
[1]; [4]
  IC50: 714 nM
[2]
  β2/β1 (ratio of the ED50 values, tracheal ring to right atrium; index of cardioselectivity): 62
[3]; [5]
  IC50: 11.5 nM

## N#Cc1ccccc1OCC(O)CN1CCCC(Cn2c(=O)[nH]c3ccccc32)C1 (stereo not drawn) [2-CNC6 H4, H]
[1]; [4]
  IC50: 12.3 nM
[2]
  β2/β1 (ratio of the ED50 values, tracheal ring to right atrium; index of cardioselectivity): 2
[3]; [5]
  IC50: 6.15 nM

## CC(=O)c1ccccc1OCC(O)CN1CCCC(Cn2c(=O)[nH]c3ccccc32)C1 (stereo not drawn) [2-(CH3 CO)C6 H4, H]
[1]; [4]
  IC50: 2.95 nM
[2]
  β2/β1 (ratio of the ED50 values, tracheal ring to right atrium; index of cardioselectivity): 1
[3]; [5]
  IC50: 2.95 nM

## CCOc1ccccc1OCC(O)CN1CCCC(Cn2c(=O)[nH]c3ccc(Cl)cc32)C1 (stereo not drawn) [2-(C2 H5 O)C6 H4,6-Cl]
[1]; [4]
  IC50: 391 nM
[2]
  β2/β1 (ratio of the ED50 values, tracheal ring to right atrium; index of cardioselectivity): 18
[3]; [5]
  IC50: 21.7 nM

## CCCOc1ccccc1OCC(O)CN1CCCC(Cn2c(=O)[nH]c3ccccc32)C1 (stereo not drawn) [2-(nC3 H7 O)C6 H4, H]
[1]; [4]
  IC50: 22.8 nM
[2]
  β2/β1 (ratio of the ED50 values, tracheal ring to right atrium; index of cardioselectivity): 4
[3]; [5]
  IC50: 5.69 nM

## O=c1[nH]c2ccccc2n1CC1CCCN(CC(O)COc2cccc3ccccc23)C1 (stereo not drawn) [1-naphthalenyl, H]
[1]; [4]
  IC50: 2900 nM
[2]
  β2/β1 (ratio of the ED50 values, tracheal ring to right atrium; index of cardioselectivity): 125
[3]; [5]
  IC50: 23.2 nM

## CC(=O)c1ccc(OCC(O)CN2CCCC(Cn3c(=O)[nH]c4ccccc43)C2)cc1 (stereo not drawn) [4-(CH3 CO)C6 H4, H]
[1]; [4]
  IC50: 47.2 nM
[2]
  β2/β1 (ratio of the ED50 values, tracheal ring to right atrium; index of cardioselectivity): 8
[3]; [5]
  IC50: 5.9 nM

## COc1ccccc1OCC(O)CN1CCCC(Cn2c(=O)[nH]c3ccccc32)C1 (stereo not drawn) [2-(CH3 O)C6 H4, H, 1,3-dihydro-1-{1-[2-hydroxy-3-(2-methoxyphenoxy)propyl]-3-piperidinylmethyl}-2H-benzimidazol-2-one]
[1]; [4]
  IC50: 12.2 nM
[2]
  β2/β1 (ratio of the ED50 values, tracheal ring to right atrium; index of cardioselectivity): 5
[3]; [5]
  IC50: 2.43 nM

## N#Cc1ccccc1OCC(O)CN1CCCC(Cn2c(=O)[nH]c3ccc(Cl)cc32)C1 (stereo not drawn) [2-CNC6 H4,6-Cl]
[1]; [4]
  IC50: 181 nM
[2]
  β2/β1 (ratio of the ED50 values, tracheal ring to right atrium; index of cardioselectivity): 16
[3]; [5]
  IC50: 11.3 nM

## O=c1[nH]c2ccccc2n1CC1CCCN(CC(O)C2COc3ccccc3O2)C1 (stereo not drawn) [1-{1-[2-(2,3-dihydro-1,4-benzodioxin-2-yl)-2-hydroxyethyl]-3-piperidinylmethyl}-1,3-dihydro-2H-benzimidazol-2-one]
[1]; Table II
  IC50: 48.8 nM
[2]; Table II
  β2/β1 (ratio of the ED50 values; index of cardioselectivity): 4
[3]; Table II, read-out: β1 = ED50 right atrium (converted)
  IC50: 12.2 nM

## O=c1[nH]c2ccccc2n1CC1CCCN(CC(O)COc2ccc(Br)cc2)C1 (stereo not drawn) [4-BrC6 H4, H]
[1]; [4]
  IC50: 2720 nM
[2]
  β2/β1 (ratio of the ED50 values, tracheal ring to right atrium; index of cardioselectivity): 250
[3]; [5]
  IC50: 10.9 nM

## C=CCOc1ccccc1OCC(O)CN1CCCC(Cn2c(=O)[nH]c3ccccc32)C1 (stereo not drawn) [2-(CH2CHCH2 O)C6 H4, H]
[1]; [4]
  IC50: 45.7 nM
[2]
  β2/β1 (ratio of the ED50 values, tracheal ring to right atrium; index of cardioselectivity): 16
[3]; [5]
  IC50: 2.86 nM

## O=c1[nH]c2cc(Cl)ccc2n1CC1CCCN(CC(O)COc2ccccc2)C1 (stereo not drawn) [C6 H5,5-Cl]
[1]; [4]
  IC50: 192 nM
[2]
  β2/β1 (ratio of the ED50 values, tracheal ring to right atrium; index of cardioselectivity): 16
[3]; [5]
  IC50: 12 nM

## CCCCNC(=O)Nc1ccc(OCC(O)CN2CCCC(Cn3c(=O)[nH]c4ccccc43)C2)cc1 (stereo not drawn) [4-(nC4 H9NHCONH)C6 H4, H]
[1]; [4]
  IC50: 161 nM
[2]
  β2/β1 (ratio of the ED50 values, tracheal ring to right atrium; index of cardioselectivity): 8
[3]; [5]
  IC50: 20.2 nM

## Cc1cccc(OCC(O)CN2CCCC(Cn3c(=O)[nH]c4ccccc43)C2)c1 (stereo not drawn) [3-(CH3)C6 H4, H]
[1]; [4]
  IC50: 50.6 nM
[2]
  β2/β1 (ratio of the ED50 values, tracheal ring to right atrium; index of cardioselectivity): 8
[3]; [5]
  IC50: 6.32 nM

## O=c1[nH]c2ccccc2n1CC1CCCN(CC(O)COc2ccc(Cl)cc2)C1 (stereo not drawn) [4-ClC6 H4, H]
[1]; [4]
  IC50: 769 nM
[2]
  β2/β1 (ratio of the ED50 values, tracheal ring to right atrium; index of cardioselectivity): 16
[3]; [5]
  IC50: 48.1 nM

## O=c1[nH]c2ccccc2n1CC1CCCN(CC(O)COc2ccc(F)cc2)C1 (stereo not drawn) [4-FC6 H4, H]
[1]; [4]
  IC50: 25 nM
[2]
  β2/β1 (ratio of the ED50 values, tracheal ring to right atrium; index of cardioselectivity): 8
[3]; [5]
  IC50: 3.13 nM

## CCCc1ccc(OCC(O)CN2CCCC(Cn3c(=O)[nH]c4cc(F)ccc43)C2)cc1 (stereo not drawn) [4-(nC3 H7)C6 H4,5-F]
[1]; [4]
  IC50: 1430 nM
[2]
  β2/β1 (ratio of the ED50 values, tracheal ring to right atrium; index of cardioselectivity): 63
[3]; [5]
  IC50: 22.6 nM

## CC(=O)Nc1ccc(OCC(O)CN2CCCC(Cn3c(=O)[nH]c4ccccc43)C2)cc1 (stereo not drawn) [4-(CH3 CONH)C6 H4, H]
[1]; [4]
  IC50: 410 nM
[2]
  β2/β1 (ratio of the ED50 values, tracheal ring to right atrium; index of cardioselectivity): 72
[3]; [5]
  IC50: 5.7 nM

## O=c1[nH]c2cc(F)ccc2n1CC1CCCN(CC(O)COc2ccccc2)C1 (stereo not drawn) [C6 H5,5-F]
[1]; [4]
  IC50: 12.5 nM
[2]
  β2/β1 (ratio of the ED50 values, tracheal ring to right atrium; index of cardioselectivity): 4
[3]; [5]
  IC50: 3.13 nM

## O=c1[nH]c2ccc(Cl)cc2n1CC1CCCN(CC(O)COc2cccc3ccccc23)C1 (stereo not drawn) [1-naphthalenyl, 6-Cl]
[1]; [4]
  IC50: 343 nM
[2]
  β2/β1 (ratio of the ED50 values, tracheal ring to right atrium; index of cardioselectivity): 32
[3]; [5]
  IC50: 10.7 nM
